For eight compounds, pest or weed control, melting point and inhibition of growth results are on record in patent US11083196B2, “Microbiocidal oxadiazole derivatives” (SYNGENTA PARTICIPATIONS AG, priority 2016, dated 2021).

For series [1], the system named is Puccinia recondita f. sp. tritici. Description: Fungicidal activity against Puccinia recondita f. sp. tritici / wheat / leaf disc curative (brown rust). Particulars: foliar, 144 h, wheat leaf segments cv. Kanzler, applied 1 day after inoculation, assessed 6-8 days after application, compared to untreated control. It is filed as in vivo. As to the method:
Leaf disks or leaf segments of various plant species are cut from plants grown in a greenhouse. The cut leaf disks or segments are placed in multiwell plates (24-well format) onto water agar. The leaf disks are sprayed with a test solution before (preventative) or after (curative) inoculation. Compounds to be tested are prepared as DMSO solutions (max. 10 mg/ml) which are diluted to the appropriate concentration with 0.025% Tween20 just before spraying. The inoculated leaf disks or segments are incubated under defined conditions (temperature, relative humidity, light, etc.) according to the respective test system. A single evaluation of disease level is carried out 3 to 14 days after inoculation, depending on the pathosystem. Percent disease control relative to the untreated check leaf disks or segments is then calculated. Wheat leaf segments cv. Kanzler are placed on agar in multiwell plates (24-well format). The leaf segments are inoculated with a spore suspension of the fungus. Plates are stored in darkness at 19° C. and 75% rh. The formulated test compound diluted in water is applied 1 day after inoculation. The leaf segments are incubated at 19° C. and 75% rh under a light regime of 12 h light/12 h darkness in a climate cabinet and the activity of a compound is assessed as percent disease control compared to untreated when an appropriate level of disease damage appears in untreated check leaf segments (6-8 days after application).

Another series has as its system Phakopsora pachyrhizi. Description: Fungicidal activity against Phakopsora pachyrhizi / soybean / leaf disc preventative (Asian soybean rust). The format is in vivo. To be noted: foliar, 288 h, soybean leaf disks, inoculated one day after application, assessed 12-14 days after application, compared to untreated control. On the procedure: Leaf disks or leaf segments of various plant species are cut from plants grown in a greenhouse. The cut leaf disks or segments are placed in multiwell plates (24-well format) onto water agar. The leaf disks are sprayed with a test solution before (preventative) or after (curative) inoculation. Compounds to be tested are prepared as DMSO solutions (max. 10 mg/ml) which are diluted to the appropriate concentration with 0.025% Tween20 just before spraying. The inoculated leaf disks or segments are incubated under defined conditions (temperature, relative humidity, light, etc.) according to the respective test system. A single evaluation of disease level is carried out 3 to 14 days after inoculation, depending on the pathosystem. Percent disease control relative to the untreated check leaf disks or segments is then calculated. Soybean leaf disks are placed on water agar in multiwell plates (24-well format) and sprayed with the formulated test compound diluted in water. One day after application leaf discs are inoculated by spraying a spore suspension on the lower leaf surface. After an incubation period in a climate cabinet of 24-36 hours in darkness at 20° C. and 75% rh leaf disc are kept at 20° C. with 12 h light/day and 75% rh. The activity of a compound is assessed as percent disease control compared to untreated when an appropriate level of disease damage appears in untreated check leaf disks (12-14 days after application).

In series [2] the test system is Glomerella lagenarium (Colletotrichum lagenarium). Description: Fungicidal activity against Glomerella lagenarium (Colletotrichum lagenarium), liquid culture / cucumber / preventative (anthracnose). The format is cell-based. To be noted: Colletotrichum orbiculare, liquid culture (PDB), growth inhibition measured photometrically 3-4 days after application, compared to untreated control. The gist of the method: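 Glomerella lagenarium conidia in potato dextrose broth were exposed in 96-well plates to test compound diluted from DMSO stock with 0.025% Tween20 and incubated at 24 °C. Growth inhibition was read photometrically 3–4 days after application, as percent activity relative to untreated check.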

Series [3] concerns Puccinia recondita f. sp. tritici. Description: Fungicidal activity against Puccinia recondita f. sp. tritici / wheat / leaf disc preventative (brown rust). To be noted: foliar, 168 h, wheat leaf segments cv. Kanzler, inoculated 1 day after application, assessed 7-9 days after application, compared to untreated control. The format is in vivo. On the procedure: Leaf disks or leaf segments of various plant species are cut from plants grown in a greenhouse. The cut leaf disks or segments are placed in multiwell plates (24-well format) onto water agar. The leaf disks are sprayed with a test solution before (preventative) or after (curative) inoculation. Compounds to be tested are prepared as DMSO solutions (max. 10 mg/ml) which are diluted to the appropriate concentration with 0.025% Tween20 just before spraying. The inoculated leaf disks or segments are incubated under defined conditions (temperature, relative humidity, light, etc.) according to the respective test system. A single evaluation of disease level is carried out 3 to 14 days after inoculation, depending on the pathosystem. Percent disease control relative to the untreated check leaf disks or segments is then calculated. Wheat leaf segments cv. Kanzler are placed on agar in multiwell plates (24-well format) and sprayed with the formulated test compound diluted in water. The leaf disks are inoculated with a spore suspension of the fungus 1 day after application. The inoculated leaf segments are incubated at 19° C. and 75% rh under a light regime of 12 h light/12 h darkness in a climate cabinet and the activity of a compound is assessed as percent disease control compared to untreated when an appropriate level of disease damage appears in untreated check leaf segments (7-9 days after application).

Each structure is given as a SMILES string.

For the compound `CC1=NOC(c2ccc(-c3noc(C(F)(F)F)n3)cc2)C1` (stereo not drawn) [Compound A-4, 3-[4-(3-methyl-4,5-dihydroisoxazol-5-yl)phenyl]-5-(trifluoromethyl)-1,2,4-oxadiazole], the melting point (commonly the temperature, or range, at which the solid turns liquid) fell in the range of 89 to 92 °C. Besides, the pest or weed control (commonly how far the test organism was held down) at 200 ppm in series [1] was no less than 80%. Also, in the series with Phakopsora pachyrhizi, the pest or weed control at 200 ppm is no less than 80%. The inhibition of growth (as a rule, how much of the control response was suppressed) at 20 ppm in series [2] is no less than 80%. Also, the pest or weed control at 200 ppm in series [3] is no less than 80%.
`CC1(C)CN=C(c2ccc(-c3noc(C(F)(F)F)n3)cc2)O1` [Compound A-21, 3-[4-(5,5-dimethyl-4H-oxazol-2-yl)phenyl]-5-(trifluoromethyl)-1,2,4-oxadiazole] showed a melting point of 178 to 180 °C. For the same compound, in series [1], the pest or weed control at 200 ppm is no less than 80%. The pest or weed control at 200 ppm with Phakopsora pachyrhizi is no less than 80%. Further, the inhibition of growth at 20 ppm in series [2] was no less than 80%. Besides, in series [3], the pest or weed control at 200 ppm was no less than 80%.
On to `CC1COC(c2ccc(-c3noc(C(F)(F)F)n3)cc2)=N1` (stereo not drawn) [Compound A-1, 3-[4-(4-methyl-4,5-dihydrooxazol-2-yl)phenyl]-5-(trifluoromethyl)-1,2,4-oxadiazole], for which the melting point was in the range of 77 to 80 °C. The pest or weed control at 200 ppm in series [1] is no less than 80%. In addition, in the series with Phakopsora pachyrhizi, the pest or weed control at 200 ppm was no less than 80%. In series [2], this compound had an inhibition of growth at 20 ppm of no less than 80%. Besides, the pest or weed control at 200 ppm in series [3] is no less than 80%.
`COCC1=NOC(c2ccc(-c3noc(C(F)(F)F)n3)cc2)C1` (stereo not drawn) [Compound A-9, 3-[4-[3-(methoxymethyl)-4,5-dihydroisoxazol-5-yl]phenyl]-5-(trifluoromethyl)-1,2,4-oxadiazole] had a melting point of 59 to 63 °C. In series [1], this compound returned a pest or weed control at 200 ppm of no less than 80%. This compound also displayed a pest or weed control at 200 ppm with Phakopsora pachyrhizi of no less than 80%. This compound registered an inhibition of growth at 20 ppm in series [2] of no less than 80%. The pest or weed control at 200 ppm in series [3] is no less than 80%.
Regarding `CCC1=NOC(c2ccc(-c3noc(C(F)(F)F)n3)cc2)C1` (stereo not drawn) [Compound A-5, 3-[4-(3-ethyl-4,5-dihydroisoxazol-5-yl)phenyl]-5-(trifluoromethyl)-1,2,4-oxadiazole], the melting point is 75 to 80 °C. Moreover, the pest or weed control at 200 ppm in series [1] was no less than 80%. The pest or weed control at 200 ppm in the series on Phakopsora pachyrhizi was no less than 80%. Besides, in series [2], the inhibition of growth at 20 ppm is no less than 80%. For the same compound, the pest or weed control at 200 ppm in series [3] was no less than 80%.
Compound `FC(F)(F)c1nc(-c2ccc(-c3ccnc(Cl)c3)cc2)no1` [Compound D-26, 3-[4-(2-chloro-4-pyridyl)phenyl]-5-(trifluoromethyl)-1,2,4-oxadiazole] came in with a melting point of 110 to 115 °C. Also, the pest or weed control at 200 ppm in series [1] was no less than 80%. For the same compound, the pest or weed control at 200 ppm with Phakopsora pachyrhizi was no less than 80%. The same compound gave an inhibition of growth at 20 ppm in series [2] of no less than 80%. The compound also yielded a pest or weed control at 200 ppm in series [3] of no less than 80%.
Regarding `CC(C)(C)[S+]([O-])NC1CSC(c2ccc(-c3noc(C(F)(F)F)n3)cc2)=N1` (stereo not drawn) [Compound A-29, 2-methyl-N-[2-[4-[5-(trifluoromethyl)-1,2,4-oxadiazol-3-yl]phenyl]-4,5-dihydrothiazol-4-yl]propane-2-sulfinamide], the pest or weed control at 200 ppm (in series [1]; with Phakopsora pachyrhizi; in series [3]) was no less than 80% in each case. In series [2], this compound showed an inhibition of growth at 20 ppm of no less than 80%.
Consider `CCCC1=NOC(c2ccc(-c3noc(C(F)(F)F)n3)cc2)C1` (stereo not drawn) [Compound A-6, 3-[4-(3-propyl-4,5-dihydroisoxazol-5-yl)phenyl]-5-(trifluoromethyl)-1,2,4-oxadiazole], for which the melting point is 79 to 83 °C. The compound also gave a pest or weed control at 200 ppm in series [1] of no less than 80%. The compound further had a pest or weed control at 200 ppm in the series on Phakopsora pachyrhizi of no less than 80%. In addition, the inhibition of growth at 20 ppm in series [2] is no less than 80%. In series [3], the pest or weed control at 200 ppm was no less than 80%.
